Source: ChEMBL document CHEMBL1833889, “Ursolic acid is a PPAR-α agonist that regulates hepatic lipid metabolism” (Bioorg Med Chem Lett, 2011)
Active and inactive are the calls of the source. The rule behind the calls is not given here.

Key:
[1] = molecular target: T1, Peroxisome proliferator-activated receptor alpha (Homo sapiens) (UniProt Q07869); test: Agonist activity at PPARalpha in human HepG2 cells assessed as up-regulation of FATP4 mRNA expression at 80 uM by quantitative PCR analysis; assay type: functional, cell-based
T1 sequence (whole entry): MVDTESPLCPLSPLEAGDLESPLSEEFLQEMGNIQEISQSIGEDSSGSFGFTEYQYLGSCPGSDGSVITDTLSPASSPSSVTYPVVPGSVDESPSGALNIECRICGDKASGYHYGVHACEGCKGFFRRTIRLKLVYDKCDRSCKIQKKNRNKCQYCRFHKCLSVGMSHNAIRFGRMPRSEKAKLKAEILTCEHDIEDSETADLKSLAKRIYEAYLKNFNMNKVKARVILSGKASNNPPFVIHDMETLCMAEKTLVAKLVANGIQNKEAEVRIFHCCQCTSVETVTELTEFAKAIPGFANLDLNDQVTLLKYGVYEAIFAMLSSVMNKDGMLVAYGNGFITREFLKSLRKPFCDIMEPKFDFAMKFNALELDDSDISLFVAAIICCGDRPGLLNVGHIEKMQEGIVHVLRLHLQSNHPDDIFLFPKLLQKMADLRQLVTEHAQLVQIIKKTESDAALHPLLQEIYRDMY

[2] = molecular target: T1, Peroxisome proliferator-activated receptor alpha (Homo sapiens); test: (§1) Agonist activity at human recombinant PPARalpha expressed in HepG2 cells co-transfected with pGL3-PPRE3-TK-luc reporter assessed as […] after 24 hrs by luciferase based transactivation assay; assay type: functional, cell-based
[3] = molecular target: T2, Peroxisome proliferator-activated receptor alpha (Homo sapiens, UniProt Q07869); test: as §1; assay type: functional, cell-based
T2 sequence (Q07869 whole entry): T1 sequence (whole entry)

[4] = molecular target: T1, Peroxisome proliferator-activated receptor alpha (Homo sapiens); test: Agonist activity at human recombinant PPARalpha expressed in HepG2 cells co-transfected with pGL3-PPRE3-TK-luc reporter assessed as […] at 80 uM after 24 hrs by luciferase based transactivation assay; assay type: functional, cell-based
[5] = molecular target: T1, Peroxisome proliferator-activated receptor alpha (Homo sapiens); test: Agonist activity at human recombinant PPARalpha expressed in HepG2 cells assessed as binding of activated PPARalpha to the PPRE at 20 uM by ELISA-based assay; assay type: cell-based
[6] = molecular target: T1, Peroxisome proliferator-activated receptor alpha (Homo sapiens); test: (§2) Binding affinity to histidine-tagged human PPARalpha-LBD assessed as recruitment of co-activator peptide fluorescein-labeled PGC1alpha after 2 hrs by TR-FRET assay
[7] = molecular target: T1, Peroxisome proliferator-activated receptor alpha (Homo sapiens); test: Binding affinity to histidine-tagged human PPARalpha-LBD by SPR analysis
HepG2 [8] = test: Hypolipidemic activity in human HepG2 cells assessed as decrease in triglyceride level at 5 uM relative to control; assay type: functional; set-up: scale not given: the % may be the effect or the level left
HepG2 [9] = test: Hypolipidemic activity in human HepG2 cells assessed as decrease in triglyceride level at 20 uM relative to control; assay type: functional; set-up: scale not given: the % may be the effect or the level left
HepG2 [10] = test: Hypolipidemic activity in human HepG2 cells assessed as decrease in triglyceride level at 80 uM relative to control; assay type: functional; set-up: scale not given: the % may be the effect or the level left
HepG2 [11] = test: Hypolipidemic activity in human HepG2 cells assessed as decrease in cholesterol level at 5 uM by fluorescence-based method relative to control; assay type: functional; set-up: scale not given: the % may be the effect or the level left
HepG2 [12] = test: Hypolipidemic activity in human HepG2 cells assessed as decrease in cholesterol level at 20 uM by fluorescence-based method relative to control; assay type: functional; set-up: scale not given: the % may be the effect or the level left
HepG2 [13] = test: Hypolipidemic activity in human HepG2 cells assessed as decrease in cholesterol level at 80 uM by fluorescence-based method relative to control; assay type: functional; set-up: scale not given: the % may be the effect or the level left
HepG2 [14] = test: Induction of BODIPY-labeled 4,4-difluoro-5-methyl-4-bora-3a,4a-diaza-s-indacene-3-dodecanoic acid uptake in human HepG2 cells at 80 uM after 1 min by FACS analysis; assay type: functional
[15] = molecular target: T1, Peroxisome proliferator-activated receptor alpha (Homo sapiens); test: Agonist activity at PPARalpha in human HepG2 cells assessed as up-regulation of FATP4 mRNA expression at 20 uM by quantitative PCR analysis; assay type: functional, cell-based
[16] = molecular target: T1, Peroxisome proliferator-activated receptor alpha (Homo sapiens); test: Agonist activity at PPARalpha in human HepG2 cells assessed as up-regulation of PPARalpha mRNA expression at 5 uM by quantitative PCR analysis; assay type: functional, cell-based
[17] = molecular target: T1, Peroxisome proliferator-activated receptor alpha (Homo sapiens); test: Agonist activity at PPARalpha in human HepG2 cells assessed as up-regulation of PPARalpha mRNA expression at 20 uM by quantitative PCR analysis; assay type: functional, cell-based
[18] = molecular target: T1, Peroxisome proliferator-activated receptor alpha (Homo sapiens); test: Agonist activity at PPARalpha in human HepG2 cells assessed as up-regulation of PPARalpha mRNA expression at 80 uM by quantitative PCR analysis; assay type: functional, cell-based
[19] = molecular target: T1, Peroxisome proliferator-activated receptor alpha (Homo sapiens); test: Agonist activity at PPARalpha in human HepG2 cells assessed as up-regulation of acyl-CoA synthetase mRNA expression at 5 to 80 uM by quantitative PCR analysis; assay type: functional, cell-based
[20] = molecular target: T1, Peroxisome proliferator-activated receptor alpha (Homo sapiens); test: Agonist activity at PPARalpha in human HepG2 cells assessed as up-regulation of carnitine palmitoyl transferase mRNA expression at 80 uM by quantitative PCR analysis relative to control; assay type: functional, cell-based
[21] = molecular target: T1, Peroxisome proliferator-activated receptor alpha (Homo sapiens); test: Agonist activity at PPARalpha in human HepG2 cells assessed as down-regulation of FAS mRNA expression at 80 uM by quantitative PCR analysis; assay type: functional, cell-based
[22] = molecular target: T1, Peroxisome proliferator-activated receptor alpha (Homo sapiens); test: Agonist activity at PPARalpha in human HepG2 cells assessed as effect on LPL mRNA expression at 5 to 80 uM by quantitative PCR analysis; assay type: functional, cell-based
[23] = molecular target: T1, Peroxisome proliferator-activated receptor alpha (Homo sapiens); test: Agonist activity at PPARalpha in human HepG2 cells assessed as down-regulation of SCD1 mRNA expression at 80 uM by quantitative PCR analysis; assay type: functional, cell-based
[24] = molecular target: T1, Peroxisome proliferator-activated receptor alpha (Homo sapiens); test: Agonist activity at PPARalpha in human HepG2 cells assessed as down-regulation of SREBP1c mRNA expression at 80 uM by quantitative PCR analysis; assay type: functional, cell-based
[25] = molecular target: T1, Peroxisome proliferator-activated receptor alpha (Homo sapiens); test: Agonist activity at PPARalpha in human HepG2 cells assessed as up-regulation of ACOX mRNA level at 80 uM by quantitative PCR analysis; assay type: functional, cell-based
[26] = molecular target: T2, Peroxisome proliferator-activated receptor alpha; test: as §2
HepG2 [27] = test: Induction of BODIPY-labeled 4,4-difluoro-5-methyl-4-bora-3a,4a-diaza-s-indacene-3-dodecanoic acid uptake in human HepG2 cells after 1 min by FACS analysis; assay type: functional, cell-based

With C[C@H]1[C@H](C)CC[C@]2(C(=O)O)CC[C@]3(C)C(=CC[C@@H]4[C@@]5(C)CC[C@H](O)C(C)(C)[C@@H]5CC[C@]43C)[C@H]12 [URSOLIC ACID] the Activity [1] was 259%, the Activity [2] was “Dose-dependent effect” and the EC50 [3] was 41.3 µM. The Activity [4] was 214%, the Activity [5] was 46% and the Activity [6] was “inactive”. The Activity [7] was “inactive”, the Activity (HepG2 [8]) was 23.5% and the Activity (HepG2 [9]) was 38.8%. For the same compound, the Activity (HepG2 [10]) was 44.7%, the Activity (HepG2 [11]) was 11% and the Activity (HepG2 [12]) was 18.9%. The Activity (HepG2 [13]) was 26.5%, the Activity (HepG2 [14]) was 108.7% and the Activity [15] was 185%. For the same compound, the Activity [16] was 134%, the Activity [17] was 156% and the Activity [18] was 195%. For the same compound, the Activity [19] was “Active”, the Activity [20] was 1020% and the Activity [21] was 23%. The Activity [22] was “inactive”, the Activity [23] was 15% and the Activity [24] was 28%. For the same compound, the Activity [25] was 24%.
In the case of CC(C)(Oc1ccc(C(=O)c2ccc(Cl)cc2)cc1)C(=O)O [FENOFIBRIC ACID], the Activity [6] is reported as “Dose-dependent effect”, the EC50 [26] is reported as 4.5 µM and the Activity [7] is reported as “Active”. For the same compound, the Activity (HepG2 [27]) was “Dose-dependent effect”.
